Where “and” joins values, the source holds several entries; their conditions need not be identical. Equal values may be shown once.
Details: Fluid (supercritical or subcritical phases), Coaxial cylinder method

FCC(F)(F)F [1,1,1,2-tetrafluoroethane]
Details	thermal conductivity
377.87 K, 4339 kPa	0.0617 W/m/K
377.87 K, 4470 kPa	0.0614 W/m/K
377.87 K, 4479 kPa	0.0606 W/m/K
377.89 K, 4330 kPa	0.0583 W/m/K
377.89 K, 4518 kPa	0.0587 W/m/K
377.89 K, 4531 kPa	0.0582 W/m/K
377.9 K, 4541 kPa	0.0575 W/m/K
377.9 K, 4551 kPa	0.057 W/m/K
377.9 K, 4561 kPa	0.0566 W/m/K
377.9 K, 4582 kPa	0.0563 W/m/K
377.91 K, 4321 kPa	0.0557 W/m/K
377.93 K, 4309 kPa	0.0521 W/m/K
377.93 K, 4800 kPa	0.0547 W/m/K
377.93 K, 4851 kPa	0.0547 W/m/K
377.95 K, 4301 kPa	0.0503 W/m/K
377.96 K, 6000 kPa	0.0569 W/m/K
377.97 K, 4302 kPa	0.0487 W/m/K
378.02 K, 4500 kPa	0.0601 W/m/K
378.05 K, 7003 kPa	0.0589 W/m/K
378.07 K, 180 kPa	0.02003 W/m/K
378.07 K, 6502 kPa	0.058 W/m/K
378.11 K, 5504 kPa	0.056 W/m/K
378.16 K, 8004 kPa	0.0605 W/m/K
378.18 K, 7450 kPa	0.0597 W/m/K
378.24 K, 10507 kPa	0.064 W/m/K
378.25 K, 4395 kPa	0.0667 W/m/K
378.25 K, 4400 kPa	0.0667 W/m/K
378.25 K, 9919 kPa	0.0632 W/m/K
378.25 K, 21005 kPa	0.0736 W/m/K
378.26 K, 4380 kPa	0.0657 W/m/K
378.26 K, 4390 kPa	0.0664 W/m/K
378.26 K, 4410 kPa	0.0667 W/m/K
378.26 K, 4420 kPa	0.0661 W/m/K
378.26 K, 4430 kPa	0.0655 W/m/K
378.26 K, 9506 kPa	0.0627 W/m/K
378.27 K, 4370 kPa	0.0645 W/m/K
378.27 K, 4440 kPa	0.0645 W/m/K
378.27 K, 4450 kPa	0.0639 W/m/K
378.27 K, 4460 kPa	0.0633 W/m/K
378.27 K, 9008 kPa	0.062 W/m/K
378.27 K, 18500 kPa	0.0716 W/m/K
378.28 K, 4360 kPa	0.0622 W/m/K
378.28 K, 4470 kPa	0.0625 W/m/K
378.28 K, 4480 kPa	0.0616 W/m/K
378.29 K, 4350 kPa	0.0597 W/m/K
378.29 K, 4490 kPa	0.0611 W/m/K
378.29 K, 4500 kPa	0.0608 W/m/K
378.29 K, 4510 kPa	0.0603 W/m/K
378.29 K, 4520 kPa	0.0601 W/m/K
378.29 K, 4530 kPa	0.0598 W/m/K
378.29 K, 8408 kPa	0.0612 W/m/K
378.29 K, 16500 kPa	0.0701 W/m/K
378.3 K, 4540 kPa	0.0595 W/m/K
378.3 K, 4550 kPa	0.0593 W/m/K
378.3 K, 4570 kPa	0.0588 W/m/K
378.3 K, 4590 kPa	0.0585 W/m/K
378.31 K, 4340 kPa	0.057 W/m/K
378.31 K, 4620 kPa	0.0581 W/m/K
378.31 K, 4626 kPa	0.0578 W/m/K
378.31 K, 4650 kPa	0.0573 W/m/K
378.31 K, 4688 kPa	0.0571 W/m/K
378.31 K, 4730 kPa	0.0569 W/m/K
378.31 K, 14505 kPa	0.0683 W/m/K
378.32 K, 4770 kPa	0.0567 W/m/K
378.33 K, 4330 kPa	0.0547 W/m/K
378.33 K, 13441 kPa	0.0674 W/m/K
378.34 K, 12420 kPa	0.0663 W/m/K
378.35 K, 4320 kPa	0.0524 W/m/K
378.36 K, 4310 kPa	0.0506 W/m/K
378.36 K, 11376 kPa	0.065 W/m/K
378.37 K, 10981 kPa	0.0646 W/m/K
378.38 K, 4300 kPa	0.0488 W/m/K
378.4 K, 4290 kPa	0.0472 W/m/K
378.41 K, 4280 kPa	0.0461 W/m/K
378.43 K, 4260 kPa	0.0438 W/m/K
378.45 K, 4240 kPa	0.0422 W/m/K
378.47 K, 4220 kPa	0.0408 W/m/K
378.49 K, 4200 kPa	0.0395 W/m/K
378.5 K, 4180 kPa	0.0385 W/m/K
378.53 K, 4140 kPa	0.0368 W/m/K
378.53 K, 4150 kPa	0.0371 W/m/K
378.54 K, 4130 kPa	0.0364 W/m/K
378.59 K, 4860 kPa	0.0565 W/m/K
378.59 K, 4900 kPa	0.0565 W/m/K
378.63 K, 440 kPa	0.02017 W/m/K
378.74 K, 180 kPa	0.02012 W/m/K
378.81 K, 4120 kPa	0.036 W/m/K
378.83 K, 4090 kPa	0.0351 W/m/K
378.85 K, 4050 kPa	0.0339 W/m/K
378.9 K, 330 kPa	0.02026 W/m/K
378.9 K, 3950 kPa	0.0317 W/m/K
379.09 K, 4452 kPa	0.0625 W/m/K
379.09 K, 4460 kPa	0.0627 W/m/K
379.09 K, 4464 kPa	0.063 W/m/K
379.09 K, 4470 kPa	0.063 W/m/K
379.09 K, 4475 kPa	0.063 W/m/K
379.09 K, 4484 kPa	0.063 W/m/K
379.09 K, 4500 kPa	0.0627 W/m/K
379.1 K, 4331 kPa	0.0441 W/m/K
379.17 K, 300 kPa	0.02023 W/m/K
379.22 K, 4504 kPa	0.0628 W/m/K
379.23 K, 4452 kPa	0.0608 W/m/K
379.23 K, 4453 kPa	0.0614 W/m/K
379.23 K, 4520 kPa	0.062 W/m/K
379.23 K, 4530 kPa	0.0615 W/m/K
379.24 K, 4540 kPa	0.0609 W/m/K
379.24 K, 4547 kPa	0.0606 W/m/K
379.24 K, 4560 kPa	0.0601 W/m/K
379.24 K, 4570 kPa	0.0599 W/m/K
379.25 K, 4442 kPa	0.0593 W/m/K
379.25 K, 4600 kPa	0.0591 W/m/K
379.25 K, 4620 kPa	0.0587 W/m/K
379.25 K, 4642 kPa	0.0584 W/m/K
379.26 K, 4431 kPa	0.0573 W/m/K
379.26 K, 4662 kPa	0.0579 W/m/K
379.26 K, 4680 kPa	0.0577 W/m/K
379.26 K, 4703 kPa	0.0575 W/m/K
379.26 K, 4739 kPa	0.0573 W/m/K
379.26 K, 4766 kPa	0.0573 W/m/K
379.26 K, 4806 kPa	0.057 W/m/K
379.27 K, 4424 kPa	0.0559 W/m/K
379.28 K, 4414 kPa	0.0545 W/m/K
379.29 K, 4404 kPa	0.053 W/m/K
379.3 K, 4396 kPa	0.0516 W/m/K
379.32 K, 4386 kPa	0.0501 W/m/K
379.33 K, 4376 kPa	0.0487 W/m/K
379.34 K, 4369 kPa	0.0478 W/m/K
379.36 K, 4355 kPa	0.0462 W/m/K
379.37 K, 4346 kPa	0.0453 W/m/K
379.39 K, 4330 kPa	0.0437 W/m/K
379.4 K, 4309 kPa	0.0422 W/m/K
379.4 K, 4317 kPa	0.0427 W/m/K
379.4 K, 4838 kPa	0.0567 W/m/K
379.4 K, 4888 kPa	0.0562 W/m/K
379.41 K, 4932 kPa	0.0558 W/m/K
379.41 K, 5000 kPa	0.0554 W/m/K
379.41 K, 5051 kPa	0.055 W/m/K
379.42 K, 4288 kPa	0.0408 W/m/K
379.43 K, 150 kPa	0.02035 W/m/K
379.43 K, 154 kPa	0.0231 W/m/K
379.43 K, 4282 kPa	0.0405 W/m/K
379.45 K, 4254 kPa	0.0389 W/m/K
379.47 K, 4224 kPa	0.0376 W/m/K
379.48 K, 4200 kPa	0.0367 W/m/K
379.5 K, 4165 kPa	0.0355 W/m/K
379.5 K, 4175 kPa	0.0358 W/m/K
379.72 K, 160 kPa	0.01996 W/m/K
381.53 K, 4627 kPa	0.0551 W/m/K
381.53 K, 4640 kPa	0.0555 W/m/K
381.53 K, 4650 kPa	0.056 W/m/K
381.53 K, 4660 kPa	0.0562 W/m/K
381.53 K, 4670 kPa	0.0565 W/m/K
381.53 K, 4680 kPa	0.0565 W/m/K
381.54 K, 4700 kPa	0.0562 W/m/K
381.54 K, 4760 kPa	0.056 W/m/K
381.55 K, 4612 kPa	0.0542 W/m/K
381.55 K, 4780 kPa	0.0558 W/m/K
381.55 K, 4800 kPa	0.0555 W/m/K
381.55 K, 4815 kPa	0.0553 W/m/K
381.56 K, 4600 kPa	0.0536 W/m/K
381.56 K, 4830 kPa	0.0551 W/m/K
381.56 K, 4860 kPa	0.0549 W/m/K
381.56 K, 4900 kPa	0.0542 W/m/K
381.56 K, 4920 kPa	0.0542 W/m/K
381.56 K, 4950 kPa	0.0543 W/m/K
381.56 K, 4982 kPa	0.0543 W/m/K
381.56 K, 5016 kPa	0.0543 W/m/K
381.56 K, 5068 kPa	0.0543 W/m/K
381.57 K, 5092 kPa	0.0539 W/m/K
381.57 K, 5125 kPa	0.0538 W/m/K
381.57 K, 5136 kPa	0.0538 W/m/K
381.57 K, 5169 kPa	0.0536 W/m/K
381.57 K, 5201 kPa	0.0536 W/m/K
381.58 K, 4569 kPa	0.0518 W/m/K
381.6 K, 4530 kPa	0.0495 W/m/K
381.61 K, 4516 kPa	0.0483 W/m/K
381.61 K, 4520 kPa	0.0487 W/m/K
381.61 K, 4525 kPa	0.049 W/m/K
381.62 K, 4510 kPa	0.0478 W/m/K
381.63 K, 4490 kPa	0.0464 W/m/K
381.63 K, 4500 kPa	0.0472 W/m/K and 0.0468 W/m/K
385.18 K, 4940 kPa	0.0522 W/m/K

Source: the NIST ThermoML archive (doi:10.1021/je900210h)
